# “And” between values parts separate entries of the source, which are not always exact repeats. Identical values can stand only once.
# Tests used:
# [1] = tested on: equine alcohol dehydrogenase; experiment: Effect of inhibitors on the conversion of luciferol by equine alcohol dehydrogenase; format: biochemical; conditions: luciferol + equine ADH + NAD+ with 10 µl inhibitor solution, 37°C, 30 minutes; duplicate reactions #1, #2 (controls 1023, 1087)
# Protocol: Trichloroethanol solution: A 0.48 ml sample of 2,2,2, trichloroethanol (Aldrich T5480-5) was dissolved in water.
# Duplicate reactions were assembled (see Table 19).
# Reactions were initiated by addition of 1.5 µl of luciferol solution. Upon addition of the luciferol solution, the reactions were mixed and placed at 37°C.
# QuantiLum Luciferase [2] = molecular target: T1, QuantiLum Luciferase (Photinus pyralis, UniProt P08659); experiment: pH titration of firefly luciferase reaction with 7'-fluoroluciferin; format: biochemical
# T1 construct: purchased Promega Corporation E170
# QuantiLum Luciferase [3] = molecular target: T1, QuantiLum Luciferase; experiment: Emission spectra of luciferase reactions with luciferin, 5'-fluoroluciferin, 7'-fluoroluciferin; format: biochemical, firefly; conditions: reagent pH 7.4
# Protocol: All compounds except fluoroluciferin and ATP were purchased from Sigma Chemical. ATP was purchased from Amersham/Invitrogen.
# Spectra were measured using 0.5s integration with 1 nm increments on a Spex Fluorolog.
# QuantiLum Luciferase [4] = molecular target: T1, QuantiLum Luciferase; experiment: ATP titration of firefly luciferase reactions with luciferin and fluoroluciferins; format: biochemical; conditions: result in words
# Protocol: All compounds except 5'-fluoroluciferin and DTT were purchased from Sigma Chemical. To some of this reagent 5 mM ATP (Amersham/Invitrogen) was added, then serially diluted by half-logs to 0.05 mM. Reactions were initiated by adding equal volumes (0.1 ml) of reagent and DMEM medium (Gibco/Invitrogen) containing 0.1% Prionex® (Pentapharm) and 1.4 x 10-5 mg/ml QuantiLum™ Luciferase (Promega Corporation).
# For ATP titrations for 7'-fluoroluciferin, reagent was created containing 200 mM HEPES, 200 mM PIPES, 1 mM CDTA, 0.5% Tergitol NP-9, 0.03% Benzyl dodecyldimethyl ammonium bromide, 30 mM thiourea, 10 mM magnesium sulfate, and 0.15 mM 7'-fluoroluciferin. This solution was separated into 3 parts and pH of the reagents were 7.4, 7.2 and 6.7. To some of this reagent, 10 mM ATP (Amersham/Invitrogen) was added. The ATP was serially diluted by quarter-logs from 10 mM to 0.32 mM.
# Reactions were initiated by adding equal volumes (0.03 ml) of reagent and DMEM medium (Gibco/Invitrogen) containing 0.1% Prionex® (Pentapharm) and 1.4 x 10-5 mg/ml QuantiLum™ Luciferase (Promega Corporation).
# Luminescence was measured for 0.5 seconds per well using Berthold Orion luminometer.
# [5] = molecular target: T2, human recombinant monoamine oxidase B (MAO B) (Homo sapiens, UniProt P27338); conditions: published values; cited from earlier work
# T2 construct: purchased Sigma Chemical Company M-7441; host or cells: baculovirus infected insect cells (microsomes)
# T2 sequence (P27338 1-520): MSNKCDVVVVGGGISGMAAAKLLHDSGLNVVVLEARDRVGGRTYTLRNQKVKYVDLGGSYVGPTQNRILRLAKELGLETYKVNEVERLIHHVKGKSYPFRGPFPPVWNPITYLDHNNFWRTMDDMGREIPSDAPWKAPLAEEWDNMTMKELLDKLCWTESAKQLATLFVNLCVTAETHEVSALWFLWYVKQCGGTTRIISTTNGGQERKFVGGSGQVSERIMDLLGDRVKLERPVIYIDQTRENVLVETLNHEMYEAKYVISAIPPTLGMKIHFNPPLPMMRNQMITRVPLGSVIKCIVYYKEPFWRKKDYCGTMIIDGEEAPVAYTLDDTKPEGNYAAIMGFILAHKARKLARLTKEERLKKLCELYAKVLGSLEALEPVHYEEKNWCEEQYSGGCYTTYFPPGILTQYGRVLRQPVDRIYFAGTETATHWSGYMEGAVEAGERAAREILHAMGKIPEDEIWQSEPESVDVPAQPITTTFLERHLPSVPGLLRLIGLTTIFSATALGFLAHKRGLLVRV
# [6] = molecular target: T3, human recombinant monoamine oxidase A (MAO A) (Homo sapiens, UniProt P21397); parameters: purchased Sigma Chemical Company M-7316; host or cells: baculovirus infected insect cells (microsomes); conditions: read-out: published values MAO A; cited from earlier work
# T3 sequence (P21397 1-527): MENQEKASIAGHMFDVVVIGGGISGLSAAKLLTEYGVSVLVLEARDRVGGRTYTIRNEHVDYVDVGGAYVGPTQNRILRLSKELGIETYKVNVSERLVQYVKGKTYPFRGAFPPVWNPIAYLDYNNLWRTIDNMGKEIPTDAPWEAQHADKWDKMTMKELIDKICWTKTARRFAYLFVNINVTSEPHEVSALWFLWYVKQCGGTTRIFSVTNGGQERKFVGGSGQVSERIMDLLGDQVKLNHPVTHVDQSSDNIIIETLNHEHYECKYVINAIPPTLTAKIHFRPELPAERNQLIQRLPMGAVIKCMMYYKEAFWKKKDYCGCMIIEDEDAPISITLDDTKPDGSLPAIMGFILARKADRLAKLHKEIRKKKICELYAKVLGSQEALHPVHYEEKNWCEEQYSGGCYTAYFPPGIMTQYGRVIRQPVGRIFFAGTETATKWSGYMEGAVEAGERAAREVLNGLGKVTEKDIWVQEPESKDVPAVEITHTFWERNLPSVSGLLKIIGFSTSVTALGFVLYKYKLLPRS
# CYP2D6 = molecular target: T4, CYP2D6 (Homo sapiens, UniProt P10635); experiment: Screening inhibitors of CYP2D6 with luciferin-6-methylether ethylene glycol ester (IC50); format: biochemical; conditions: substrate luciferin-6-methylether ethylene glycol ester
# T4 construct: purchased Discovery Labware (BD/Gentest); host or cells: insect cell expression system (membrane fractions)
# CYP4F12 [7] = molecular target: T5, CYP4F12 (Homo sapiens, UniProt Q9HCS2); experiment: Two-step luminescent P450 screen of luciferin derivatives; format: biochemical; conditions: result in words
# T5 construct: purchased Discovery Labware (BD/Gentest); host or cells: insect cell expression system (membrane fractions)
# T5 sequence (Q9HCS2 1-524): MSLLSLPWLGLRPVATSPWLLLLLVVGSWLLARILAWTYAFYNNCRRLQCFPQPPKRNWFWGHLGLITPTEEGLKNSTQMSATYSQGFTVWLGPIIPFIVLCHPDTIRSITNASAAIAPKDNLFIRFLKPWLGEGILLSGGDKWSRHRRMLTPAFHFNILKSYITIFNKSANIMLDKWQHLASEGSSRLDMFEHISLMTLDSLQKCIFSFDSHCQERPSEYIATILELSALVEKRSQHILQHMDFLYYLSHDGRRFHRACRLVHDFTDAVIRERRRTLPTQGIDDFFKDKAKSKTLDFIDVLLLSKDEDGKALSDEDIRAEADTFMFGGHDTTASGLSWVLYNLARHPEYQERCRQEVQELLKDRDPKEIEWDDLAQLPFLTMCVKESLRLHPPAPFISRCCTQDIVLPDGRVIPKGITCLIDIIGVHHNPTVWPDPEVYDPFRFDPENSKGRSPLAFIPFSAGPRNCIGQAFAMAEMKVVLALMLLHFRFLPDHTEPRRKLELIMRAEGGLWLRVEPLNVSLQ
# Protocol: P450s are Supersomes™ purchased from Discovery Labware (BD/Gentest). […] HLM is human liver microsomes.
# 1X substrate concentration: 50 µM.
# CYP3A4 = CYP3A4 (Homo sapiens, UniProt P08684); experiment: as above; conditions: result in words
# QuantiLum Luciferase [8] = molecular target: T1, QuantiLum Luciferase; experiment: Scaffolds: light emission of luciferin derivatives with QuantiLum luciferase alone, + Co A, + DTT, + Co A and DTT; format: biochemical, firefly
# luciferase = experiment: No-enzyme control: activity of luciferase towards the luciferin derivative (background luminescence)
# CYP3A7 = CYP3A7 (Homo sapiens, UniProt P24462); experiment: Two-step luminescent P450 screen of luciferin derivatives; conditions: result in words
# CYP4F12 [9] = molecular target: T5, CYP4F12; conditions: previously shown (Cali, 2005b); cited from earlier work
# [10] = tested on: human recombinant flavin-containing monooxygenase 3 (FMO 3); experiment: Two-step luminescent FMO assay with luciferin derivative; format: biochemical; conditions: Table 32; CHES pH 9.5, NADPH regeneration, 4 hours room temperature; duplicates
# [11] = tested on: human recombinant flavin-containing monooxygenase 1 (FMO 1); experiment: as above; format: biochemical; conditions: Table 32; CHES pH 9.5, NADPH regeneration, 4 hours room temperature; duplicates
# CYP3A5 = CYP3A5 (Homo sapiens, UniProt P20815); experiment: Two-step luminescent P450 screen of luciferin derivatives; conditions: result in words
# Sequence of CYP3A5 (P20815 whole entry): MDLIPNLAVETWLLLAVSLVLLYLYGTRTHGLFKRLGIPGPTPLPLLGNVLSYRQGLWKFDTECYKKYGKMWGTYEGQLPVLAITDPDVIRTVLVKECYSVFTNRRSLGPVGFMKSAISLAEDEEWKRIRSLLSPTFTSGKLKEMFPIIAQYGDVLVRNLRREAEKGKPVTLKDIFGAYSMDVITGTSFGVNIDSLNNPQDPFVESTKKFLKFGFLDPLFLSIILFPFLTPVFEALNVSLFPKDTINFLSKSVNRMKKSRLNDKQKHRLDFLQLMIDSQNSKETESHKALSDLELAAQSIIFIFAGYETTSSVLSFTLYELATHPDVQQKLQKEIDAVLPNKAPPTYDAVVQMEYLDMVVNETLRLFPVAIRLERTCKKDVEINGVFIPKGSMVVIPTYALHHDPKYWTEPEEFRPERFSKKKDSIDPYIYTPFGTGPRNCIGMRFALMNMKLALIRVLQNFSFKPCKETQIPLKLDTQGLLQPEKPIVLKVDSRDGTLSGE
# T1 sequence (P08659 whole entry): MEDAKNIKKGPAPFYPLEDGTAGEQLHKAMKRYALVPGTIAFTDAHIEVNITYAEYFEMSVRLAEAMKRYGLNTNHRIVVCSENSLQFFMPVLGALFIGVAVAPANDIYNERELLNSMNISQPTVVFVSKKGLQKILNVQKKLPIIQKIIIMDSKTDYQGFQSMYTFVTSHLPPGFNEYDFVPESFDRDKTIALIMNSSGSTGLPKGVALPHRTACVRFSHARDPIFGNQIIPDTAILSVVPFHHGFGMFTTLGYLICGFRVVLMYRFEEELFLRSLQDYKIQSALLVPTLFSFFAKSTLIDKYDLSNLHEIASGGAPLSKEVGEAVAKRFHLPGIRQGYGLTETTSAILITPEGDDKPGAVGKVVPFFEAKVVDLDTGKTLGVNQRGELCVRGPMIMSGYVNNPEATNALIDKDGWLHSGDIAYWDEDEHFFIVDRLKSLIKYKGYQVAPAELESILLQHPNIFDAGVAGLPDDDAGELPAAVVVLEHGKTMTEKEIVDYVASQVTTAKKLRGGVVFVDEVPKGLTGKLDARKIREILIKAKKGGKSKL
# Sequence of CYP3A7 (P24462 whole entry): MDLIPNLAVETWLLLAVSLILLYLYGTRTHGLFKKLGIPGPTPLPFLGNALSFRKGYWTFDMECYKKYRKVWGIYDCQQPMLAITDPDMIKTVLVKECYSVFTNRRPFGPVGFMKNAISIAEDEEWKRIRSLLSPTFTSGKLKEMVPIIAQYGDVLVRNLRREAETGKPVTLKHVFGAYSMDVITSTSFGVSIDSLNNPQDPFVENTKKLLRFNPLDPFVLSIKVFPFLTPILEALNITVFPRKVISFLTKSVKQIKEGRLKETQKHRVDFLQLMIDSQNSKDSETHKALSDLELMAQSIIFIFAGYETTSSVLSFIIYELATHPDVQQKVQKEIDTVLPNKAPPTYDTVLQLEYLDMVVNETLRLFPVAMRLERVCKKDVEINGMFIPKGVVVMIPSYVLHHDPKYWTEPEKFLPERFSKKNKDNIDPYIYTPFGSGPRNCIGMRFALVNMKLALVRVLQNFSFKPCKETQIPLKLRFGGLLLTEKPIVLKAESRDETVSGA
# T4 sequence (P10635 whole entry): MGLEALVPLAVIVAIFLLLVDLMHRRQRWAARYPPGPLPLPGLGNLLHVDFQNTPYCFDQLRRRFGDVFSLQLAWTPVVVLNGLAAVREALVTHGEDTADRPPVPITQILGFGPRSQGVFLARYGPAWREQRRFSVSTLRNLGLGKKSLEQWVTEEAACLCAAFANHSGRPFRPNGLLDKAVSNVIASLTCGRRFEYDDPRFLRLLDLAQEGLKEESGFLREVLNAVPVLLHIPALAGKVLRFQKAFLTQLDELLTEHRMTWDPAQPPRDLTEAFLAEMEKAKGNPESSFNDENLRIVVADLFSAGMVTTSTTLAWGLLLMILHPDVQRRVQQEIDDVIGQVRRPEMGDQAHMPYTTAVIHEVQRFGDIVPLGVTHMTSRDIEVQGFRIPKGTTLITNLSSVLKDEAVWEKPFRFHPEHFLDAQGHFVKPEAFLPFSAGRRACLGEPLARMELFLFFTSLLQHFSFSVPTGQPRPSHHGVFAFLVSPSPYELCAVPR
# Sequence of CYP3A4 (P08684 2-503 limits assumed): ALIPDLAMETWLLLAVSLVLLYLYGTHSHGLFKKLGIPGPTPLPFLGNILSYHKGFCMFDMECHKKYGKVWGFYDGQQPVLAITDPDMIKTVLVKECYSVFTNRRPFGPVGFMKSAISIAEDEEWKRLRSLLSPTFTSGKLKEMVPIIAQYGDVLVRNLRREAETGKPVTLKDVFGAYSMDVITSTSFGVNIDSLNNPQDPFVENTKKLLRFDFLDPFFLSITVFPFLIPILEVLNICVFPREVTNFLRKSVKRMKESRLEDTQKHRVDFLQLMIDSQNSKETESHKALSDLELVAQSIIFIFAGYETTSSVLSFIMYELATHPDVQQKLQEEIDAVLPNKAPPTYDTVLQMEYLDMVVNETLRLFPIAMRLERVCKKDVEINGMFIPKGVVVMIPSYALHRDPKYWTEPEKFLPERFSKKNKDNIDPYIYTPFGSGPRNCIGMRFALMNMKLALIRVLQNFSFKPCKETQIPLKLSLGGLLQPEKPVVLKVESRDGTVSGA
structure (smiles),measurement,setting,value
"OCC(Cl)(Cl)Cl [trichloroethanol, 2,2,2, trichloroethanol]",Relative Light Units,[1],524.8 and 342.1
O=C(O)[C@H]1CSC(c2nc3ccc(O)c(F)c3s2)=N1 [7'-fluoroluciferin],pH optima for the firefly luciferase reaction,QuantiLum Luciferase [2],~7.5 pH
same,"λmax of luminescence, red-shifted from regular luciferin",QuantiLum Luciferase [3],approximately 21 nm
same,ATP requirement of the luciferase reaction compared with luciferin,QuantiLum Luciferase [4],requirement for ATP is much higher
CC(=O)N1CCN(c2ccc(OCC3COC(Cn4ccnc4)(c4ccc(Cl)cc4Cl)O3)cc2)CC1 (stereo not shown) [ketoconazole],CYP3A-dependent luminescence in human hepatocytes,CYP3A,inhibition by ketoconazole of both basal and rifampicin-induced activity
NCCc1ccccc1 [phenethylamine],IC50,[5],2 to 150 µM
same,IC50,[6],78 to 280 µM
N=C(N)N1CCc2ccccc2C1 [debrisoquine],IC50,CYP2D6,77 µM
"O=C(O)[C@H]1CSC(c2nc3ccc(OCc4ccccc4)cc3s2)=N1 [luciferin 6-benzyl ether, reference compound]",P450 activity / cross reactivity with the derivative as substrate,CYP4F12 [7],cross reacted
same,competition at the substrate binding sites on CYP3A4,CYP3A4,only competitive at 1 site
same,light emission values,"QuantiLum Luciferase [8]; Derivative Conc. 1.07, Alone",29234
same,light emission values,"QuantiLum Luciferase [8]; Derivative Conc. 1.07, Co A",50144
same,light emission values,"QuantiLum Luciferase [8]; Derivative Conc. 1.07, Co A + DTT",51799
same,light emission values,"QuantiLum Luciferase [8]; Derivative Conc. 1.07, DTT",57066
same,light emission values,"QuantiLum Luciferase [8]; Derivative Conc. 3.13, Alone",32994
same,light emission values,"QuantiLum Luciferase [8]; Derivative Conc. 3.13, Co A",55778
same,light emission values,"QuantiLum Luciferase [8]; Derivative Conc. 3.13, Co A + DTT",80626
same,light emission values,"QuantiLum Luciferase [8]; Derivative Conc. 3.13, DTT",86445
same,light emission values,"QuantiLum Luciferase [8]; Derivative Conc. 6.25, Alone",38838
same,light emission values,"QuantiLum Luciferase [8]; Derivative Conc. 6.25, Co A",58288
same,light emission values,"QuantiLum Luciferase [8]; Derivative Conc. 6.25, Co A + DTT",105912
same,light emission values,"QuantiLum Luciferase [8]; Derivative Conc. 6.25, DTT",100044
same,light emission values,"QuantiLum Luciferase [8]; Derivative Conc. 12.5, Alone",40486
same,light emission values,"QuantiLum Luciferase [8]; Derivative Conc. 12.5, Co A",57996
same,light emission values,"QuantiLum Luciferase [8]; Derivative Conc. 12.5, Co A + DTT",97371
same,light emission values,"QuantiLum Luciferase [8]; Derivative Conc. 12.5, DTT",94861
same,light emission values,"QuantiLum Luciferase [8]; Derivative Conc. 25, Alone",40093
same,light emission values,"QuantiLum Luciferase [8]; Derivative Conc. 25, Co A",53097
same,light emission values,"QuantiLum Luciferase [8]; Derivative Conc. 25, Co A + DTT",90306
same,light emission values,"QuantiLum Luciferase [8]; Derivative Conc. 25, DTT",84034
same,light emission values,"QuantiLum Luciferase [8]; Derivative Conc. 50, Alone",30609
same,light emission values,"QuantiLum Luciferase [8]; Derivative Conc. 50, Co A",38349
same,light emission values,"QuantiLum Luciferase [8]; Derivative Conc. 50, Co A + DTT",98716
same,light emission values,"QuantiLum Luciferase [8]; Derivative Conc. 50, DTT",80001
same,light emission values,"QuantiLum Luciferase [8]; Derivative Conc. 100, Alone",31581
same,light emission values,"QuantiLum Luciferase [8]; Derivative Conc. 100, Co A",33199
same,light emission values,"QuantiLum Luciferase [8]; Derivative Conc. 100, Co A + DTT",64460
same,light emission values,"QuantiLum Luciferase [8]; Derivative Conc. 100, DTT",54592
same,background luminescence,"luciferase; on a BMG luminometer, minus P450",about 5000 RLU
same,background luminescence (minus P450 control samples),luciferase; result in words,high background luminescence
same,P450 activity / selectivity with the derivative as substrate,CYP3A7,cross reacted significantly
same,reaction with CYP4F12,CYP4F12 [9],react also with CYP4F12
"CCSCCOc1ccc2nc(C3=N[C@@H](C(=O)O)CS3)sc2c1 [FMO-2, 6-(2-ethylthioethoxy)-luciferin]",RLUs FMO 3,[10],12.194 RLUs and 10.425 RLUs
same,RLUs control,"luciferase; Table 32, microsomes from wild type baculovirus infected insect cells instead of FMO, CHES pH 9.5, 4 hours, duplicates",8.7102 RLUs and 8.5489 RLUs
same,RLUs FMO 1,[11],11.778 RLUs and 12.006 RLUs
O=C(O)[C@H]1CSC(c2nc3ccc(OCc4ccc(C(F)(F)F)cc4)cc3s2)=N1 [Luciferin-6-trifluoromethylbenzylether],P450 activity / selectivity with the derivative as substrate,CYP3A5,enhanced selectivity

# Source: patent publication EP1935986B1, “Luminogenic and fluorogenic compounds and methods to detect molecules or conditions” (priority 2005, dated 2006)
